Measured values reported in US20210379046A1, “Methods of Treating Diseases Using Kinase Modulators” (Memorial Sloan Kettering Cancer Center, priority 2018, published 2021).
Entries after “also recorded” stand apart in the source; their conditions may differ.

Tested on: TPC1 tumors
Assay: TPC1 subcutaneous tumors in NRG mice, tumor HLA and PD-L1 by flow cytometry
Format: in vivo
Conditions: 7 days
Description: Female NSG (NOD.Cg-Prkdc^scidIl2rg^tm1Wj1/SzJ) and NRG (NOD.Cg-Rag1^tm1MomIl2rg^tm1Wj1/SzJ) mice were purchased from the Jackson Laboratory or MSKCC breeding facility at 5-10 weeks old. For RET and ALK experiments, 2.5-6×10^6 tumor cells were subcutaneously injected into the flank of mice and when tumors were palpable, mice were treated daily with drug or vehicles through oral gavage. At day 7, tumors were harvested and flow cytometry was run to determine effect of inhibitors on HLA and PD-L1 on the tumor cells.
To determine if the inhibitors produced similar therapeutic improvements in vivo, mice bearing the TPC1 tumor were treated with RET inhibitors. The highly immunodeficient NRG (NOD-Rag1null IL2rgnull) mice were subcutaneously injected with 2.5×10^6 luciferase tagged TPC1 cells in their right flank. […] Afterwards, cells were immediately harvested and stained with antibodies against HLA-A*02:01 and HLA-ABC.
All animal experiments were conducted in accordance with and the approval of the MSKCC IACUC (Institutional Animal Care and Use Committee) protocols. Female NSG (NOD. Cg-Prkdc^scidIl2rg^tm1Wj1/SzJ) and NRG (NOD.Cg-Rag1^tm1MomIl2rg^tm1Wj1/SzJ) mice were purchased from the Jackson Laboratory at 5-10 weeks old. For experiments in vivo with RET and ALK, 2.5-6×10^6 tumor cells in PBS were subcutaneously injected into the flank of mice. […]

CCN1CCN(Cc2ccc(NC(=O)Nc3ccc(Oc4cc(NC)ncn4)cc3)cc2C(F)(F)F)CC1 [AST487]
tumor cell surface HLA-A*02 and HLA-A,B,C in vivo (10 or 35 mg/kg once daily oral gavage): Dose related increase in HLA levels; also recorded: Dose-related increases in all HLA class I levels; also recorded: increased in a dose related manner | tumor PD-L1 levels in vivo (oral gavage): no increase in PD-L1 was seen; also recorded: PD-L1 levels did not change in vivo
